Counter-ions that a name gives are not always drawn.
Assays:
[1] = test system: T-type calcium ion channels; assay: T-type calcium ion channel inhibition, whole cell patch-clamp (electrophysiological method); format: cell-based; conditions: cerebral cortex nerve cells of suckling mice, room temperature
Description: (§1) 2. Test for L- and T-Type Calcium Ion Channel Inhibitors
(§2) This experiment was assigned to HD Biosciences Corporation (Shanghai) and conducted with an electrophysiological method.
It was done with reference to the method as disclosed by Jung-Ha Lee, et. al., “Identification of T-Type α1H Ca^2+ Channels (Cav3.2) in Major Pelvic Ganglion Neurons”.
(§3) Test samples were weighed accurately and diluted in a 3-fold stepwise dilution so that the final concentrations were as follows:
T-type test: Cerebral cortex nerve cells were separated from suckling mice, and used in the experiment after 7 days of cultivation. The ionic current of a single cell was recorded by applying the whole cell patch-clamp technique at room temperature, wherein the clamp current was −90 mV, and the pulse interval was 10 s. The inward current (the activiation was started from −20 mV) is the T-type calcium current (ICa,T).
(§4) The electrode inner liquid (mM): CsCl 120, TEA-Cl 20, CaCl2 1, EGTA-CsOH 11, Hepes 10, Mg-ATP 5, pH7.3;

[2] = target: L-type calcium ion channels (Cavia porcellus, UniProt O35505); assay: L-type calcium ion channel inhibition, whole cell patch-clamp (electrophysiological method); format: cell-based; conditions: left ventricle muscle cells of guinea pigs, room temperature
Description: as §1, §2
It was done with reference to the method as disclosed by Jung-Ha Lee, et. al., “Identification of T-Type α1H Ca^2+ Channels (Cav3.2) in Major Pelvic Ganglion Neurons”. J Neurophysiol 87:2844-2850, 2002.
as §3
L-type test: Left ventricle muscle cells were separated from guinea pigs. The cells were used in the experiment in eight hours. The ionic current of a single cell was recorded by applying the whole cell patch-clamp technique at room temperature, wherein the clamp current was −80 mV, and the pulse interval was 10 s. The inward current (the activiation was started from 0 mV) is the L-type calcium current (ICa,L).
as §4
The electrode outer liquid (mM): NaCl 135, CsCl 5.4, CaCl2 1.8, MgCl2 1, Hepes 5, glucose 10, pH7.4.

[3] = target: Human Cav3.2 (Homo sapiens, UniProt O95180); assay: T-type calcium ion channel inhibition, FLIPR method; format: cell-based; conditions: Human Cav3.2 in stable HEK-293 cells, FLIPR Calcium 4 No-Wash kit
Experimental: T-type tests for Compound 19 and Compound 20 were assigned to Chan Test Corporation, and conducted according to the FLIPR experimental procedure as follows.
It was done with reference to the method disclosed on page 48 of WO 2009/056934 A1.
Samples were weighed accurately and diluted in a 3-fold stepwise dilution so that the final concentrations were as follows: 100 μM, 30 μM, 10 μM, 3 μM, 1 μM, 0.3 μM, 0.1 μM, 0.03 μM, 0.01 μM, 0.003 μM.
T-type test: Human Cav3.2 was cloned in stable HEK-293 cells, and then the operation was conducted with FLIPR Calcium 4 No-Wash kit. The cell medium was removed. To an HEPES solution free of calcium ion was added 20 μL dye to dye for 30 minutes at a temperature of 37° C. This buffer free of calcium ion included NaCl, 137 mM; KCl, 0.5 mM; MgCl2 mM, 1 mM; HEPES, 10 mM; glucose, 10 mM. The pH value was adjusted to 7.4 with NaOH. After 30 minutes, the buffer was placed at room temperature for 30 minutes. Then 5 μL of compound to be tested, solvent or blank control were added. The compound was formulated with a buffer containing calcium ion, said buffer including KCl, 135 mM; CaCl2, 10.8 mM; MgCl2, 1 mM; HEPES, 10 mM; glucose, 10 mM. The collected fluorescence values were analyzed and the inhibition ratios were calculated.

[4] = test system: SHRs (spontaneous hypertensive rats); assay: In vivo hypotensive activity in SHRs, tail-pinch method; conditions: male SHRs, 10 mg/kg po; for Max ΔMAP (mmHg ± SEM): measured 1-24 h after administration
Experimental: The in vivo hypotensive activity assay was conducted according to the tail-pinch method with reference to Folia pharmacol. Japon. 97, 115-126 (1991).
The agents to be tested, lercanidipine, barnidipine, amlodipine, azelnidipine, efonidipine and manidipine, were accurately weighed respectively. Each agent was dissolved in DMSO. To the resulting solution was added 50% of the corresponding volume of PEG400 so that the final concentration of each agent was 1 mg/ml, and the final concentration of DMSO was 3%.
The compounds to be tested, Compound 18, Compound 21, Compound 22, Compound 23, and Compound 26, were accurately weighed respectively. Each compound was dissolved in DMSO. To the resulting solution was added 50% of the corresponding volume of PEG400 so that the final concentration of each compound was 1 mg/ml, and the final concentration of DMSO was 3%.
The compounds to be tested, Compound 19 and Compound 20, were accurately weighed respectively. Each compound was suspended in 0.5% MC so that the final concentration of each compound was 1 mg/ml.
The test for hypotensive effect: Male SHRs (spontaneous hypertensive rats) were randomly allocated into a control group and an administration group. The administration was an intragastric administration. One hour before the administration, the measured blood pressure was used as the pre-administration basic blood pressure value. After the administration, the contractive pressure, the heart rate and the mean arterial pressure of SHRs at six time points, i.e. 1, 2, 4, 6, 8 and 24 hours after the administration, were measured with a Softron BP-98A non-invasive blood pressure instrument respectively.

[5] = test system: SHRs; assay: In vivo hypotensive activity in SHRs, DSI implant-type remote blood pressure measurement; set-up: species or system rats; conditions: male SHRs, 10 mg/kg po, monitored 24 hours
Experimental: The in vivo hypotensive activity assay was conducted according to DSI experimental procedure with reference to page 56 of WO 2009/056934 A1. The agents to be tested, lercanidipine, barnidipine, amlodipine, azelnidipine, efonidipine and manidipine, were accurately weighed. Each agent was dissolved in DMSO. To the resulting solution was added 50% of the corresponding volume of PEG400 so that the final concentration of each agent was 1 mg/ml, and the final concentration of DMSO was 3%. […] Each compound was dissolved in DMSO. […] The compound to be tested, Compound 15, was accurately weighed. This compound was dissolved in DMSO. […] The compound to be tested, Compound 16 (optical activity)+108.34° and Compound 17 (optical activity optical activity)+36.4°, were accurately weighed. […] The test for hypotensive effect: Male SHRs were subjected to an abdominal aorta implantation using an implant, and used in the test after 7-10 days of recovery. The administration was an intragastric administration. One hour before the administration, the measured blood pressure was used as the pre-administration basic blood pressure value. After the administration, SHRs, allowed free access to the diet, were continuously monitored with a DSI implant-type blood pressure remote measurement system for 24 hours.

Chain of L-type calcium ion channels (O35505 whole entry): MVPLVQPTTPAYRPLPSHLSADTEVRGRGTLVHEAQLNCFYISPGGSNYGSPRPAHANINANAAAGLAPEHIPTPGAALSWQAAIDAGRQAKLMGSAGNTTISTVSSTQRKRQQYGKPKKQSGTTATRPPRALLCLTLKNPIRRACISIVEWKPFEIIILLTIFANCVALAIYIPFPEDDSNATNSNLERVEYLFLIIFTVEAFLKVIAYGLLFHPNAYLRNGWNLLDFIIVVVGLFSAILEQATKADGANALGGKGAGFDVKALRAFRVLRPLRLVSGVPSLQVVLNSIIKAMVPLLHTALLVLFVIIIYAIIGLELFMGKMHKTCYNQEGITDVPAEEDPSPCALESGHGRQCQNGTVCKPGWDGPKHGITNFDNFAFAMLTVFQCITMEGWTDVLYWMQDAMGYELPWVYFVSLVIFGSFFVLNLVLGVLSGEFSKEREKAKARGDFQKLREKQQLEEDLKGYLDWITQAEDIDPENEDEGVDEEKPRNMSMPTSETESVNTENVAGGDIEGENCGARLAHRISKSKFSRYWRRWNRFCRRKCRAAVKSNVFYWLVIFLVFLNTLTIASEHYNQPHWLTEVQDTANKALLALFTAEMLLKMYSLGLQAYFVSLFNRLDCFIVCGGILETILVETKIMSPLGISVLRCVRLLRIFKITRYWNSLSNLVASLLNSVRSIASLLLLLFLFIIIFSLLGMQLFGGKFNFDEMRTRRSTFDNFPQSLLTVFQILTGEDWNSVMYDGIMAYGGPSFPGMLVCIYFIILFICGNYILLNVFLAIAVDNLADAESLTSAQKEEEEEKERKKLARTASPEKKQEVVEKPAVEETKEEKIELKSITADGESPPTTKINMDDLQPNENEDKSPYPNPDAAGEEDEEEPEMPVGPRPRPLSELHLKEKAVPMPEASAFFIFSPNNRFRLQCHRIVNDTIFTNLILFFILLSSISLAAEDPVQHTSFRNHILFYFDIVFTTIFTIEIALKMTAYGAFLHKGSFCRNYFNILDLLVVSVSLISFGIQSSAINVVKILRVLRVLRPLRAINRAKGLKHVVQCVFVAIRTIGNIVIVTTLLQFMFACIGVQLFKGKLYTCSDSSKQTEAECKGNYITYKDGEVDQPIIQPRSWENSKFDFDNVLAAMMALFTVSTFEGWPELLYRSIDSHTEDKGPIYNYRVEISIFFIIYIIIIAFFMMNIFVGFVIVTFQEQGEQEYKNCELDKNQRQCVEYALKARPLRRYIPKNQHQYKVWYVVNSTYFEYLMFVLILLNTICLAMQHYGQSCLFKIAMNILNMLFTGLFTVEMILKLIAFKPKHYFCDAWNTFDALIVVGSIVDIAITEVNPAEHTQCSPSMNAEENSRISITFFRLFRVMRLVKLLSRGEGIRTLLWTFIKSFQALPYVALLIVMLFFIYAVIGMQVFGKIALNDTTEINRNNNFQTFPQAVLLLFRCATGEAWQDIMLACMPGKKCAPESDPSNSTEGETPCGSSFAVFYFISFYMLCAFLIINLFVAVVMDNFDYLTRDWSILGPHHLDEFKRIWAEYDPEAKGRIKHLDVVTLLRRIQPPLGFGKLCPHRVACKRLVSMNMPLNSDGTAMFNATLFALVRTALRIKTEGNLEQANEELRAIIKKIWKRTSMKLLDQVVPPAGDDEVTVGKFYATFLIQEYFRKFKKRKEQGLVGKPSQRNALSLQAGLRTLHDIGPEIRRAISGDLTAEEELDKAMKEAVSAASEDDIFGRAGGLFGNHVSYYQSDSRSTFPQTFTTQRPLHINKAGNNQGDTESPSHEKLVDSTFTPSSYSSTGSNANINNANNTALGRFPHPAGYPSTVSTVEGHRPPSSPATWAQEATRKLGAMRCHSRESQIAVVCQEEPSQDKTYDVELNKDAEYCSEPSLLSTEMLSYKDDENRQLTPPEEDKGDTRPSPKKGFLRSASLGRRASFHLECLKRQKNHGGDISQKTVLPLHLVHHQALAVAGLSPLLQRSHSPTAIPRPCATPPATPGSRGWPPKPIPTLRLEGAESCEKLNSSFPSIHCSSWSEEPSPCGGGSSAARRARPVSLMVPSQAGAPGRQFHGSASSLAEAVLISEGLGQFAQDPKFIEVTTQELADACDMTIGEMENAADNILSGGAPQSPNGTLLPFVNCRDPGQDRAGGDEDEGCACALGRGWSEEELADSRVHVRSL
Chain of Human Cav3.2 (O95180 whole entry): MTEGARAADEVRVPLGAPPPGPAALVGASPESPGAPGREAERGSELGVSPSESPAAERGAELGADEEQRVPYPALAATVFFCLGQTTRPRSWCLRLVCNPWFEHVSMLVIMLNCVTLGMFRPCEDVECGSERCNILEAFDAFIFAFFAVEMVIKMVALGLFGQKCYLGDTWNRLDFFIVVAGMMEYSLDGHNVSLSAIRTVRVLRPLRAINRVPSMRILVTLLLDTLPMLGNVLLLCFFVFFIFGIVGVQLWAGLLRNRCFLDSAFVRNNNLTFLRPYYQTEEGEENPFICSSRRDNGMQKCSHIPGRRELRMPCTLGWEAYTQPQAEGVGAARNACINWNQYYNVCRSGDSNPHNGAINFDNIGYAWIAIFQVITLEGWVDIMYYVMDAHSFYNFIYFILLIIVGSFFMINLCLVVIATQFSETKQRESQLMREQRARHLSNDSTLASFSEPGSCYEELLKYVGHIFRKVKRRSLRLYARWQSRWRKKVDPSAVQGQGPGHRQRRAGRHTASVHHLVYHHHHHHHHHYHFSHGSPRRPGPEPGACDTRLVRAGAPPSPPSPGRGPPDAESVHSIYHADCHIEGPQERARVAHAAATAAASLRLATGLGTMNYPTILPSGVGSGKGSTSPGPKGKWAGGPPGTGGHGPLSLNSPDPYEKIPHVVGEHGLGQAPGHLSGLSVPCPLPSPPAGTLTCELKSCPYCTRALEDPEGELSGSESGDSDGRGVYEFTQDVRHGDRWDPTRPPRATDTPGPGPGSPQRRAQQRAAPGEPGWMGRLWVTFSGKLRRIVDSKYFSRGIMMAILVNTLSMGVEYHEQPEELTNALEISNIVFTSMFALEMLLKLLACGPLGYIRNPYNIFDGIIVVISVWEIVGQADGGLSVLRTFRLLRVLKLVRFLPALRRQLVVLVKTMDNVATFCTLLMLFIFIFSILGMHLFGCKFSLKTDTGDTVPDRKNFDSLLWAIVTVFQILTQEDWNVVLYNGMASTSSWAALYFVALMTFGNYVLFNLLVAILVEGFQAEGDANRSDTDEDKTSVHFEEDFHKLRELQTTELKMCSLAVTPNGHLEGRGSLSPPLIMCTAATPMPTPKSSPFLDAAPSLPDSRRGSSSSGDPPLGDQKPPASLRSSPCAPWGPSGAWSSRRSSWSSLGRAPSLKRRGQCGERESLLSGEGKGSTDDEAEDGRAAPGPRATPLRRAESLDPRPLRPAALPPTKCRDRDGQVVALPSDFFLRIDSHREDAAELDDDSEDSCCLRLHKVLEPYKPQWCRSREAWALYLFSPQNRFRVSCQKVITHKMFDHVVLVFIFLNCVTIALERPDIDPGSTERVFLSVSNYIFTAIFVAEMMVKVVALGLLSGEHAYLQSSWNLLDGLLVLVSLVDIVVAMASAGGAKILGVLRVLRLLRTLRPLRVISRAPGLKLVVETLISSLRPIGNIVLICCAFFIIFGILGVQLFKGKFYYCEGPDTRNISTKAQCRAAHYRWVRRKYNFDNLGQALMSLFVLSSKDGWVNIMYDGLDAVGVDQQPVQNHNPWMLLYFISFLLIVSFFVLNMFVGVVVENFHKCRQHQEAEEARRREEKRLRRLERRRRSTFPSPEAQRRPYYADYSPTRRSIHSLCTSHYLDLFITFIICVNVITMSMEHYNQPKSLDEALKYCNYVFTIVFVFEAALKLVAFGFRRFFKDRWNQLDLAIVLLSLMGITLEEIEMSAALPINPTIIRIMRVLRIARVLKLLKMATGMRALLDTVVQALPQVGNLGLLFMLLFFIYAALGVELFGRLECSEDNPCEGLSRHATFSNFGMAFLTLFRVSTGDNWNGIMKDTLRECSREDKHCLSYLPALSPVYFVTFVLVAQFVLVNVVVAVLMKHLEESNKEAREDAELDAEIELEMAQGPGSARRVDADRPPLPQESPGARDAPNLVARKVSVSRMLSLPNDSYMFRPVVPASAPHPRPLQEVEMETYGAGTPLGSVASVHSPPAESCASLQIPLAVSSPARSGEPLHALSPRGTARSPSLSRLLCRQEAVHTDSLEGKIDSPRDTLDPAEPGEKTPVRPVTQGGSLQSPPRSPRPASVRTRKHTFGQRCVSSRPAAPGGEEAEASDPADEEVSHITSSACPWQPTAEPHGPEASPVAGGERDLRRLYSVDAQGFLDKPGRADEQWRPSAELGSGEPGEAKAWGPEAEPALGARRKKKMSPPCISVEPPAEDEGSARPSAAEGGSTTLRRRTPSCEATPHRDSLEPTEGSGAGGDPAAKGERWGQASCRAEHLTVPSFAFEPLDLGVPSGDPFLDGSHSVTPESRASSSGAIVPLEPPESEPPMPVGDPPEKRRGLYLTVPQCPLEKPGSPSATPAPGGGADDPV

SMILES | IC50 [1] | IC50 [2] | IC50 [3] | ΔMAP > 20 (mmHg) Duration time of action [4] | Max ΔMAP (mmHg ± SEM) [4] | Max ΔMAP (mmHg ± SEM) [5] | ΔMAP > 20 (mmHg) Duration time of action [5]
COC(=O)C1=C(C)NC(C)=C(C(=O)OC2(C)CCN(Cc3ccccc3)C2)C1c1cccc([N+](=O)[O-])c1 (centres unmarked) [Compound 1 hydrochloride, 3-(1-benzyl-3-methylpyrrolidin-3-yl) 5-methyl 2,6-dimethyl-4-(3-nitrophenyl)-1,4-dihydropyridine-3,5-dicarboxylate] | 4.47 µM | – | – | – | – | – | –
CCOC(=O)C1=C(COCCN)NC(C)=C(C(=O)OC)C1c1ccccc1Cl (centres unmarked) [amlodipine, reference compound] | – | 1.11 µM | > 100 µM | 24 h | 74 ± 8 mmHg | 48 ± 13 mmHg | 16 h
COC(=O)C1=C(C)NC(C)=C(C(=O)O[C@@]2(C)CCN(CCC(c3ccccc3)c3ccccc3)C2)[C@H]1c1cccc([N+](=O)[O-])c1 [Compound 16, (S)-3-[(S)-1-(3,3-diphenylpropyl)-3-methylpyrrolidin-3-yl] 5-methyl 2,6-dimethyl-4-(3-nitrophenyl)-1,4-dihydropyridine-3,5-dicarboxylate] | 2.28 µM | 0.59 µM | 1.95 µM | – | – | 57 ± 5 mmHg | 11 h
COC(=O)C1=C(C)NC(C)=C(C(=O)OC2(C)CCN(CCC(c3ccccc3)c3ccccc3)C2)C1c1cccc([N+](=O)[O-])c1 (centres unmarked) [Compound 2 hydrochloride, 3-[1-(3,3-diphenylpropyl)-3-methylpyrrolidin-3-yl]5-methyl 2,6-dimethyl-4-(3-nitrophenyl)-1,4-dihydropyridine-3,5-dicarboxylate] | 3.2 µM | – | – | – | – | – | –
COC(=O)C1=C(C)NC(C)=C(C(=O)OC(C)(C)CN(C)CCC(c2ccccc2)c2ccccc2)C1c1cccc([N+](=O)[O-])c1 (centres unmarked) [lercanidipine, reference compound] | > 10 µM | 0.84 µM | – | 23 h | 77 ± 15 mmHg | 54 ± 7 mmHg | 14 h
COC(=O)C1=C(C)NC(C)=C(C(=O)O[C@H]2CCN(Cc3ccccc3)C2)[C@H]1c1cccc([N+](=O)[O-])c1 [barnidipine, reference compound] | 8.15 µM | 0.58 µM | 30.8 µM | 14 h | 81 ± 10 mmHg | 60 ± 6 mmHg | 9 h

From patent US9198902B2, “1,4-dihydropyridine-3,5-dicarboxylate derivatives and preparation and use thereof” (Xuanzhu Pharma Co., Ltd., priority 2011, dated 2015)
